From patent US12594276B2, “Inhibitors of human immunodeficiency virus replication” (ViiV Healthcare UK (No.5) Limited, priority 2024, dated 2026)

What was measured:
[1] = system: recombinant NL4-3 virus (nef section replaced with Renilla luciferase gene) in MT-2 cells; assay: HIV cell culture assay (antiviral activity, luciferase readout); type: cell-based; conditions: Renilla, NL43, MT-2 cells infected for 4-5 days with recombinant NL4-3 Renilla luciferase virus
In short: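 Read-out: Renilla luciferase (live-cell substrate) in infected MT-2 cells after 4-5 d with serial compound dilutions. Virus from 293T transfection of the proviral clone, titered by luciferase in MT-2. EC50 via median effect equation fit.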

[2] = Compound cytotoxicity, XTT-based colorimetric assay; type: cell-based; conditions: human; uninfected MT2 cells, day 4, XTT; read-out: CC50
In short: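 CC50 derived from XTT colorimetric signal measured on day 4 in MT2 cells that were not infected. All other steps followed the antiviral assay protocol.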

Question: Which results are given for Cc1cc(C2(F)CCC(F)(F)CC2)nc2nc([C@H](Cc3cc(F)cc(F)c3)NC(=O)Cn3nc(C4CC4)c4c3C[C@@H]3C[C@H]43)n(-c3ccc(Cl)c4c(NS(C)(=O)=O)nn(CCN5CCCC5=O)c34)c(=O)c12 (relative stereo) [Example 738, N-[(1S)-1-[(3P)-3-{4-chloro-3-methanesulfonamido-1-[2-(2-oxopyrrolidin-1-yl)ethyl]-1H-indazol-7-yl}-5-methyl-4-oxo-7-(1,4,4-trifluorocyclohexyl)-3H,4H-pyrido[2,3-d]pyrimidin-2-yl]-2-(3,5-difluorophenyl)ethyl]-2-[(2R*,4R*)-9-cyclopropyl-7,8-diazatricyclo[4.3.0.0^2,^4]nona-1(6),8-dien-7-yl]acetamide]?
Answer: EC50 [1]: 0.043 nM; CC50 at 4 days [2]: > 20 nM

Question: Which results are given for Cc1cc(C2CCC(F)(F)CC2)nc2nc([C@H](Cc3cc(F)cc(F)c3)NC(=O)Cn3nc(C(F)F)c4c3C(F)(F)[C@@H]3C[C@H]43)n(-c3ccc(Cl)c4c(NS(C)(=O)=O)nn(CC(=O)N(C)[C@@H]5CCOC5)c34)c(=O)c12 (atropisomer, axis not shown; (P)) [Example 405, N-[(1S)-1-[(3P)-3-[4-chloro-3-methanesulfonamido-1-({methyl[(3R)-oxolan-3-yl]carbamoyl}methyl)-1H-indazol-7-yl]-7-(4,4-difluorocyclohexyl)-5-methyl-4-oxo-3H,4H-pyrido[2,3-d]pyrimidin-2-yl]-2-(3,5-difluorophenyl)ethyl]-2-[(2S,4R)-9-(difluoromethyl)-5,5-difluoro-7,8-diazatricyclo[4.3.0.0^2,^4]nona-1(6),8-dien-7-yl]acetamide]?
Answer: EC50 [1]: 0.034 nM; CC50 at 4 days [2]: > 20 nM

Question: For COCCCn1nc(NS(C)(=O)=O)c2c(Cl)ccc(-n3c([C@H](Cc4cc(F)cc(F)c4)NC(=O)Cn4nc(C(F)F)c5c4C(F)(F)[C@@H]4C[C@H]54)nc4nc(C5CCC(F)(F)CC5)cc(NCCN5CCC(F)(F)CC5)c4c3=O)c21 (atropisomer, axis not shown; (P)) [Example 498, N-[(1S)-1-[(3P)-3-[4-chloro-3-methanesulfonamido-1-(3-methoxypropyl)-1H-indazol-7-yl]-7-(4,4-difluorocyclohexyl)-5-{[2-(4,4-difluoropiperidin-1-yl)ethyl]amino}-4-oxo-3H,4H-pyrido[2,3-d]pyrimidin-2-yl]-2-(3,5-difluorophenyl)ethyl]-2-[(2S,4R)-9-(difluoromethyl)-5,5-difluoro-7,8-diazatricyclo[4.3.0.0^2,^4]nona-1(6),8-dien-7-yl]acetamide], which EC50 [1] is on record?
Answer: The EC50 was 0.018 nM.

Question: What about the CC50 at 4 days [2] of the same compound?
Answer: Its CC50 at 4 days is > 20 nM.

Question: For COCCCn1nc(NS(C)(=O)=O)c2c(Cl)ccc(-n3c([C@H](Cc4cc(F)cc(F)c4)NC(=O)Cn4nc(C(F)F)c5c4C(F)(F)[C@@H]4C[C@H]54)nc4nc(C5CCC(F)(F)CC5)ccc4c3=O)c21 (atropisomer, axis not shown; (P)) [Example 623, N-[(1S)-1-[(3P)-3-[4-chloro-3-methanesulfonamido-1-(3-methoxypropyl)-1H-indazol-7-yl]-7-(4,4-difluorocyclohexyl)-4-oxo-3H,4H-pyrido[2,3-d]pyrimidin-2-yl]-2-(3,5-difluorophenyl)ethyl]-2-[(2S,4R)-9-(difluoromethyl)-5,5-difluoro-7,8-diazatricyclo[4.3.0.0^2,^4]nona-1(6),8-dien-7-yl]acetamide], which EC50 [1] is on record?
Answer: Its EC50 is 0.012 nM.

Question: And the CC50 at 4 days [2]?
Answer: The CC50 at 4 days was > 100 nM.

Question: Which results are given for COCCNCCn1nc(NS(C)(=O)=O)c2c(Cl)ccc(-n3c([C@H](Cc4cc(F)cc(F)c4)NC(=O)Cn4nc(C5CC5)c5c4C[C@@H]4C[C@H]54)nc4nc(C5CCC(F)(F)CC5)cc(C)c4c3=O)c21 (atropisomer, axis not shown; (P)) [Example 10, N-[(1S)-1-[(3P)-3-(4-chloro-3-methanesulfonamido-1-{2-[(2-methoxyethyl)amino]ethyl}-1H-indazol-7-yl)-7-(4,4-difluorocyclohexyl)-5-methyl-4-oxo-3H,4H-pyrido[2,3-d]pyrimidin-2-yl]-2-(3,5-difluorophenyl)ethyl]-2-[(2S,4S)-9-cyclopropyl-7,8-diazatricyclo[4.3.0.0^2,^4]nona-1(6),8-dien-7-yl]acetamide]?
Answer: EC50 [1]: 0.06 nM; CC50 at 4 days [2]: > 50 nM

Question: Which EC50 [1] does the source give for Cc1cc(C2CCC(F)(F)CC2)nc2nc([C@H](Cc3cc(F)cc(F)c3)NC(=O)Cn3nc(C4CC4)c4c3C[C@@H]3C[C@H]43)n(-c3ccc(Cl)c4c(NS(C)(=O)=O)nn(CCN5CCC(C)(F)C5)c34)c(=O)c12 (stereo partly drawn) [Example 280, N-[(1S)-1-[(3P)-3-{4-chloro-1-[2-(3-fluoro-3-methylpyrrolidin-1-yl)ethyl]-3-methanesulfonamido-1H-indazol-7-yl}-7-(4,4-difluorocyclohexyl)-5-methyl-4-oxo-3H,4H-pyrido[2,3-d]pyrimidin-2-yl]-2-(3,5-difluorophenyl)ethyl]-2-[(2S,4S)-9-cyclopropyl-7,8-diazatricyclo[4.3.0.0^2,^4]nona-1(6),8-dien-7-yl]acetamide] here?
Answer: The EC50 was 0.006 nM.

Question: And the CC50 at 4 days [2]?
Answer: The CC50 at 4 days was > 50 nM.

Question: What does the source list for CS(=O)(=O)Nc1nn(CCN2CCC(F)(F)CC2)c2c(-n3c([C@H](Cc4cc(F)cc(F)c4)NC(=O)Cn4nc(C5CC5)c5c4C[C@@H]4C[C@H]54)nc4nc(C5CCC(F)(F)CC5)c(F)cc4c3=O)ccc(Cl)c12 (atropisomer, axis not shown; (P)) [Example 239, N-[(1S)-1-[(3P)-3-{4-chloro-1-[2-(4,4-difluoropiperidin-1-yl)ethyl]-3-methanesulfonamido-1H-indazol-7-yl}-7-(4,4-difluorocyclohexyl)-6-fluoro-4-oxo-3H,4H-pyrido[2,3-d]pyrimidin-2-yl]-2-(3,5-difluorophenyl)ethyl]-2-[(2S,4S)-9-cyclopropyl-7,8-diazatricyclo[4.3.0.0^2,^4]nona-1(6),8-dien-7-yl]acetamide]?
Answer: EC50 [1]: 0.021 nM; CC50 at 4 days [2]: > 50 nM

Question: Which EC50 [1] does the source give for Cc1cc(C2(F)CCC(F)(F)CC2)nc2nc([C@H](Cc3cc(F)cc(F)c3)NC(=O)Cn3nc(C(F)(F)F)c4c3C(F)(F)[C@@H]3C[C@H]43)n(-c3ccc(Cl)c4c(NS(C)(=O)=O)nn(CCN5C[C@@H](C)O[C@@H](C)C5)c34)c(=O)c12 (atropisomer, axis not shown; (P)) [Example 594, N-[(1S)-1-[(3P)-3-(4-chloro-1-{2-[(2R,6S)-2,6-dimethylmorpholin-4-yl]ethyl}-3-methanesulfonamido-1H-indazol-7-yl)-5-methyl-4-oxo-7-(1,4,4-trifluorocyclohexyl)-3H,4H-pyrido[2,3-d]pyrimidin-2-yl]-2-(3,5-difluorophenyl)ethyl]-2-[(2S,4R)-5,5-difluoro-9-(trifluoromethyl)-7,8-diazatricyclo[4.3.0.0^2,^4]nona-1(6),8-dien-7-yl]acetamide] here?
Answer: Its EC50 is 0.011 nM.

Question: What about the CC50 at 4 days [2] of the same compound?
Answer: Its CC50 at 4 days is > 20 nM.

Question: Which EC50 [1] does the source give for C[C@@H](CN1C[C@H](F)C[C@H](F)C1)n1nc(NS(C)(=O)=O)c2c(Cl)ccc(-n3c([C@H](Cc4cc(F)cc(F)c4)NC(=O)Cn4nc(C(F)F)c5c4C(F)(F)[C@@H]4C[C@H]54)nc4nc(C5CCC(F)(F)CC5)cc(C5CC5)c4c3=O)c21 (atropisomer, axis not shown; (P)) [Example 735, N-[(1S)-1-[(3P)-3-{4-chloro-1-[(2S)-1-[(3R,5S)-3,5-difluoropiperidin-1-yl]propan-2-yl]-3-methanesulfonamido-1H-indazol-7-yl}-5-cyclopropyl-7-(4,4-difluorocyclohexyl)-4-oxo-3H, 4H-pyrido[2,3-d]pyrimidin-2-yl]-2-(3,5-difluorophenyl)ethyl]-2-[(2S,4R)-9-(difluoromethyl)-5,5-difluoro-7,8-diazatricyclo[4.3.0.0^2,^4]nona-1(6),8-dien-7-yl]acetamide] here?
Answer: Its EC50 is 0.018 nM.

Question: What about the CC50 at 4 days [2] of the same compound?
Answer: The CC50 at 4 days was > 20 nM.

Question: With Cc1cc(C2CCC(F)(F)CC2)nc2nc([C@H](Cc3cc(F)cc(F)c3)NC(=O)Cn3nc(C4CC4)c4c3C[C@@H]3C[C@H]43)n(-c3ccc(Cl)c4c(NS(C)(=O)=O)nn(CCN5CCCCC5)c34)c(=O)c12 (atropisomer, axis not shown; (P)) [Example 276, N-[(1S)-1-[(3P)-3-{4-chloro-3-methanesulfonamido-1-[2-(piperidin-1-yl)ethyl]-1H-indazol-7-yl}-7-(4,4-difluorocyclohexyl)-5-methyl-4-oxo-3H,4H-pyrido[2,3-d]pyrimidin-2-yl]-2-(3,5-difluorophenyl)ethyl]-2-[(2S,4S)-9-cyclopropyl-7,8-diazatricyclo[4.3.0.0^2,^4]nona-1(6),8-dien-7-yl]acetamide] as the compound, how does the EC50 [1] read?
Answer: Its EC50 is 0.016 nM.

Question: And the CC50 at 4 days [2]?
Answer: Its CC50 at 4 days is > 50 nM.

Question: For CCNc1cc(C2CCC(F)(F)CC2)nc2nc([C@H](Cc3cc(F)cc(F)c3)NC(=O)Cn3nc(C(F)F)c4c3C(F)(F)[C@@H]3C[C@H]43)n(-c3ccc(Cl)c4c(NS(C)(=O)=O)nn(CCCOC)c34)c(=O)c12 (atropisomer, axis not shown; (P)) [Example 427, N-[(1S)-1-[(3P)-3-[4-chloro-3-methanesulfonamido-1-(3-methoxypropyl)-1H-indazol-7-yl]-7-(4,4-difluorocyclohexyl)-5-(ethylamino)-4-oxo-3H,4H-pyrido[2,3-d]pyrimidin-2-yl]-2-(3,5-difluorophenyl)ethyl]-2-[(2S,4R)-9-(difluoromethyl)-5,5-difluoro-7,8-diazatricyclo[4.3.0.0^2,4]nona-1(6),8-dien-7-yl]acetamide], which EC50 [1] is on record?
Answer: The EC50 was 0.01 nM.

Question: And the CC50 at 4 days [2]?
Answer: The CC50 at 4 days was > 20 nM.

Question: With CS(=O)(=O)Nc1nn(CCN2CCCCC2)c2c(-n3c([C@H](Cc4cc(F)cc(F)c4)NC(=O)Cn4nc(C(F)F)c5c4C(F)(F)[C@@H]4C[C@H]54)nc4nc(C5CCC(F)(F)CC5)ccc4c3=O)ccc(Cl)c12 (atropisomer, axis not shown; (P)) [Example 165, N-[(1S)-1-[(3P)-3-{4-chloro-3-methanesulfonamido-1-[2-(piperidin-1-yl)ethyl]-1H-indazol-7-yl}-7-(4,4-difluorocyclohexyl)-4-oxo-3H,4H-pyrido[2,3-d]pyrimidin-2-yl]-2-(3,5-difluorophenyl)ethyl]-2-[(2S,4R)-9-(difluoromethyl)-5,5-difluoro-7,8-diazatricyclo[4.3.0.0^2,^4]nona-1(6),8-dien-7-yl]acetamide] as the compound, how does the EC50 [1] read?
Answer: Its EC50 is 0.031 nM.

Question: And the CC50 at 4 days [2]?
Answer: Its CC50 at 4 days is > 50 nM.
